Results: EP4610260B1, “ARYL HETEROCYCLIC KV1.3 INHIBITOR, PREPARATION METHOD THEREFOR, AND USE THEREOF” (Shanghai Shenshi Wise Technology Co., Ltd., priority 2022, dated 2024)

System: Kv1.3 potassium channel
Test: Whole-cell patch-clamp assay for inhibitory activity against Kv1.3 (peak current)
Format: cell-based
Settings: HEK293 cells stably expressing Kv1.3, room temperature
Procedure: 1. Assay for inhibitory activity of compounds against Kv1.X
HEK293 cells stably expressing Kv1.X (Kv1.1, Kv1.2, Kv1.3, Kv1.4, Kv1.5) potassium channels were cultured in DMEM medium containing 10% fetal bovine serum and 800 µg/mL G418 (geneticin) at a culture temperature of 37 °C and a carbon dioxide concentration of 5%.
1.2. Fluids used for recording
The extracellular fluid contained 40 mM NaCl, 3.5 mM KCl, 1 mM MgCl2•6H2O, 2 mM CaCl2•2H2O, 10 mM D-glucose, 10 mM HEPES, 1.25 mM NaH2PO4•2H2O, and the pH was adjusted to 7.4 with NaOH. The intracellular fluid contained 20 mM KCl, 115 mM K-Aspartic, 1 mM MgCl2•6H2O, 5 mM EGTA, 10 mM HEPES, 2 mM Na2-ATP, and the pH was adjusted to 7.2 with KOH.
The voltage stimulation protocol for recording whole-cell Kv1.X potassium currents via patch-clamp was as follows: After formation of a whole-cell seal, the cell membrane voltage was clamped at -80 mV, and then stepped to +40 mV for 500 ms. Data were acquired repeatedly every 30 s and the effect of the drug on Kv1.X currents was observed. […] Then, a slow capacitance compensation was given, and the membrane capacitance and series resistance were recorded. […]
Once the whole-cell recorded Kv1.X current stabilized, drug administration was started. […] For each cell, the current detected in the compound-free extracellular liquid was used as its own control group. […]

| Structure (SMILES) | IC50 |
| --- | --- |
| Oc1ccc(Cl)c(Cl)c1[C@@H]1Cc2nnc([C@H]3C[C@@H](O)C3)n2C1 [Example 70, 3,4-Dichloro-2-((S)-3-((1s,3R)-3-hydroxycyclobutyl)-6,7-dihydro-5H-pyrrolo[2,1-c][1,2,4]triazol-6-yl)phenol] | 21.6 nM |
| Oc1ccc(Cl)c(Cl)c1[C@@H]1Cc2nnc([C@H]3C[C@H](O)C3)n2C1 [Example 71, 3,4-dichloro-2-((S)-3-((1r,3S)-3-hydroxycyclobutyl)-6,7-dihydro-5H-pyrrolo[2,1-c][1,2,4]triazol-6-yl)phenol] | 10.3 nM |
